The text below walks through data of patent US20160137630A1, “INDUCTION OF GATA2 BY HDAC1 AND HDAC2 INHIBITORS” (ACETYLON PHARMACEUTICALS, INC., priority 2014, published 2016).

Assay [1] deals with MV4-11 cells. The experiment in a line: GATA2 expression in MV4-11 AML cell line. Format: cell-based. The following applies: 1 uM single agent, 48 h and 72 h. As to the method:
FIG. 24. […] (A-B) MV4-11 cells were plated at 2×10^5 cells/ml at indicated doses for 48 h and 72 h. RNA was prepared and analyzed for GATA2 and GAPDH as internal control.

Assay [2] addresses HDAC3 (Homo sapiens, UniProt O15379). Description: in vitro biochemical HDAC inhibition assay. The following applies: read-out: IC50 HDAC3.
Assay [3] has as its target HDAC1 (Homo sapiens, UniProt Q13547). The experiment in a line: in vitro biochemical HDAC inhibition assay. Particulars: read-out: IC50 HDAC1.
The target in assay [4] is HDAC6 (Homo sapiens, UniProt Q9UBN7). Description: in vitro biochemical HDAC inhibition assay.
Sequence of HDAC6 (Q9UBN7 whole entry): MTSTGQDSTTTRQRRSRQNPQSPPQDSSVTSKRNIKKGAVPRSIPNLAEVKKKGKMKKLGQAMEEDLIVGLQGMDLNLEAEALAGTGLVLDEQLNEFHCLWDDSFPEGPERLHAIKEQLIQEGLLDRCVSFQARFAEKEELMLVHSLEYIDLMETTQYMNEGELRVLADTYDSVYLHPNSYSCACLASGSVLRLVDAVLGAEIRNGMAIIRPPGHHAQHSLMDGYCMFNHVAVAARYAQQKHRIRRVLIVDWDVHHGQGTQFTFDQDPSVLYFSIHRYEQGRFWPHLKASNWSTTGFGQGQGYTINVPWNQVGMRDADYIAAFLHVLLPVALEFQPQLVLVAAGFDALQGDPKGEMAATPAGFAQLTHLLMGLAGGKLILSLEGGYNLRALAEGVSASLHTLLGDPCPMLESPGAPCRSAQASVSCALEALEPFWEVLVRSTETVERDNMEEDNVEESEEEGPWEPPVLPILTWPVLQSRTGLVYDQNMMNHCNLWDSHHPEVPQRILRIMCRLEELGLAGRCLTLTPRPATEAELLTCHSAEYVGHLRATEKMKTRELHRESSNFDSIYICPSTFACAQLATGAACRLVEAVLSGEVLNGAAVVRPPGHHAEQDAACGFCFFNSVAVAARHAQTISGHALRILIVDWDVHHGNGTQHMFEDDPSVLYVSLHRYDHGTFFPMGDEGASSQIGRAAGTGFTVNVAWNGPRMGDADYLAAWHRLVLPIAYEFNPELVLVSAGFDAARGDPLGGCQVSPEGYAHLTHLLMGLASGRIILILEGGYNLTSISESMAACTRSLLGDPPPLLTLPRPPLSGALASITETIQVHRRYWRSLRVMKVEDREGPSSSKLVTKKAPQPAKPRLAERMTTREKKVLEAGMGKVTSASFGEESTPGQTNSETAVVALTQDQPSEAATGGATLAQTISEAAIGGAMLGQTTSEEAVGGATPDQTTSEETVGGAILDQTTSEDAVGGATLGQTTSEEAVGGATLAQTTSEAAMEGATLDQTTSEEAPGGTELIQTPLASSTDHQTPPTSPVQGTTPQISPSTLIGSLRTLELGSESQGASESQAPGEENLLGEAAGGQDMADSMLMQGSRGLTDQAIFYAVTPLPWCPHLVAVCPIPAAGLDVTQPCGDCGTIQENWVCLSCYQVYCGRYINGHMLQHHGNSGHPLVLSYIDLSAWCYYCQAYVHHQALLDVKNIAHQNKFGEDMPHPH
The target of assay [5] is HDAC2 (Homo sapiens, UniProt Q92769). The experiment in a line: in vitro biochemical HDAC inhibition assay. Particulars: read-out: IC50 HDAC2.
Sequence of HDAC2 (Q92769 whole entry): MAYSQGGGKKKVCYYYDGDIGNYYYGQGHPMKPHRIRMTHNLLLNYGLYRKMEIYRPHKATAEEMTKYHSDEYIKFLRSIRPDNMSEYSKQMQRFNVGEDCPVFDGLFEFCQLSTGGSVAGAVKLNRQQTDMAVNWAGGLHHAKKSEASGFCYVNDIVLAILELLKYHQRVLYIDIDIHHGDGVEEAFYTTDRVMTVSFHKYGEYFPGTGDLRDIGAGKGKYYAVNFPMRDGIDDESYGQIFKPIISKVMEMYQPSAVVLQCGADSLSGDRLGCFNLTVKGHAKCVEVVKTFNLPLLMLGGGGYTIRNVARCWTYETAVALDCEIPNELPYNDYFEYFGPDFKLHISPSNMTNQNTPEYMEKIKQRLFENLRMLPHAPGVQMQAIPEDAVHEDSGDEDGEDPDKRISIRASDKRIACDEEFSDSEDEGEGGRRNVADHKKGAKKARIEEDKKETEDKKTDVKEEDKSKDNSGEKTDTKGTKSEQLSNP
For assay [6], the system named is Gata2 mRNA. Description: induction of Gata2 mRNA in erythroid progenitors by HDAC1,2 inhibitors. In kind it is cell-based, human. The following applies: erythroid progenitors differentiated 3 days with compound; FIG. 2A-C. From the text:
Human bone marrow derived CD34+ cells were expanded for 7 days as described by Sankaran et al., Science, vol. 322(5909), pp. 1839-42 (2008). Cells were then differentiated, in the presence of the indicated compound (i.e., Compounds 001, Compound Y, Compound 2005, Compound 2004, Compound 2003), for 3 days in media supporting erythropoiesis (Hu et al., “Isolation and functional characterization of human erythroblasts at distinct stages: implications for understanding of normal and disordered erythropoiesis in vivo”, Blood, vol. 121(16), pp. 3246-53 ([…])). FIG. 2A, FIG. 2B, and FIG. 2C each represents an experimental series performed on different days and with different donor cells.

Assay [7] has as its system human bone marrow-derived CD34+ cells. Description: viability of expanded CD34+ cells. Format: cell-based. The following applies: Homo sapiens, 48 h; 2 days of treatment; FIG. 19A. From the text: This possibility was first tested by measuring the viability of expanded human bone marrow-derived CD34+ cells, composed of primitive and more differentiated hematopoietic progenitors of multiple lineages, following 2 days of treatment with compound.

The test system of assay [8] is HDACs 4-9. The experiment in a line: in vitro HDAC inhibition assay, HDACs 4-9. Format: biochemical. The following applies: concentrations as high as 20 μM; FIG. 20.
In assay [9] the test system is Human CD34+ bone marrow cells. The experiment in a line: erythroid maturation in CS1 by CD71/GlyA flow cytometry. In kind it is cell-based. The following applies: 1 μM, first 5 days. From the text:
To investigate the effects of HDAC inhibition on later stages of erythroid maturation, differentiation in CS1 was followed by flow cytometry using fluorescent antibodies against the transferrin receptor (CD71) and glycophorin A (GlyA). […] The majority of vehicle control cells continued to differentiate, becoming CD71^posGlyA^pos by day 8. […] CD71^posGlyA^mid cells are equivalent to proerythroblasts (ProE), while CD71^posGlyA^pos cells include the more differentiated basophilic and polychromatic erythroblasts.

For assay [10], the system named is HbG mRNA. Description: % HbG mRNA induction in 2-phase culture systems CS1 and CS2. In kind it is cell-based, human. From the text:
Then, the cells were differentiated by exposure to either vehicle (control) or Compound 001. RNA samples of HbG were taken at days 0, 3, 5, and 8. […] Staining cells with a FITC-conjugated anti-HbF antibody and flow cytometry was used to measure induction of fetal hemoglobin.

Entries after “also recorded” stand apart in the source; their conditions may differ. Where two headings read alike, the source gives them in different places.

Sequence of HDAC1 (Q13547 whole entry): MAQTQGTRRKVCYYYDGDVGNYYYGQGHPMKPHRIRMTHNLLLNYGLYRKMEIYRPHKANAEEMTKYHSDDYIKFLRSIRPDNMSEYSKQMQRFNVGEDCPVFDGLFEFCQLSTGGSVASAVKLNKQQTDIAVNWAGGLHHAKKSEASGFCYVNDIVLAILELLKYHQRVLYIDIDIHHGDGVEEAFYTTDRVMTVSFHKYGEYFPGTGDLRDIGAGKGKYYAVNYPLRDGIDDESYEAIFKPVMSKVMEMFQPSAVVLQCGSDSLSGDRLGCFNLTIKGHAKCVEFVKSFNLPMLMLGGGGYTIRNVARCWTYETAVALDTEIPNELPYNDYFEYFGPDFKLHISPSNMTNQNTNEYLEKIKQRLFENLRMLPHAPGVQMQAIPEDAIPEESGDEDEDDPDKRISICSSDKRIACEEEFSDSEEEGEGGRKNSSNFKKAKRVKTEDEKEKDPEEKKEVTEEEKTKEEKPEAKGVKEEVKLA
Sequence of HDAC3 (O15379 whole entry): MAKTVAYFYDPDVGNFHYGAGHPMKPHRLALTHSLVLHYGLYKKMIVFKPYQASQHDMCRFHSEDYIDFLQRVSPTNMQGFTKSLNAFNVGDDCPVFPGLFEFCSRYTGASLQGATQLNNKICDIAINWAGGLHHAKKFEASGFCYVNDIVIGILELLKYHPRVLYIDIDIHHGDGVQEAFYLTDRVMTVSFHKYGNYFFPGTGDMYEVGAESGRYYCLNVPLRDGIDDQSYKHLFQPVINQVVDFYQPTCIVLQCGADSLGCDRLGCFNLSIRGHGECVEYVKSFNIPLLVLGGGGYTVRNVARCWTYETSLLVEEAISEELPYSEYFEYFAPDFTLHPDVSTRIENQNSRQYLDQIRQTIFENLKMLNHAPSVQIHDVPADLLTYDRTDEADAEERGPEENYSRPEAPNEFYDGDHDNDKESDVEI
Sequence of HDAC3 (Q9Y618 395-489 partner limits assumed): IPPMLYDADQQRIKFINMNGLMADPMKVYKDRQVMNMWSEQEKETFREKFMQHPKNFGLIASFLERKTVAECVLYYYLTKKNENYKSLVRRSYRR

Turning to `Nc1ncn([C@@H]2O[C@H](CO)[C@@H](O)[C@H]2O)c(=O)n1` [Azacitidine, azacitidine, reference compound], the GATA2 level entry in [1] is listed as “induced GATA2 level”.
The same measure, in the same setting: with `Nc1ccc(-c2cccs2)cc1NC(=O)c1ccc2c(c1)cc(C1CC1)n2CCN1CCOCC1` [Compound 005, N-(2-amino-5-(thiophen-2-yl)phenyl)-2-cyclopropyl-1-(2-morpholinoethyl)-1H-indole-5-carboxamide] the entry was “induced GATA2 level”.
As to `O=C(NO)c1cnc(NC2(c3ccccc3)CCN(C(=O)Nc3ccc(Cl)c(Cl)c3)CC2)nc1` [Compound 1011], the IC50 (as a rule, the concentration at which inhibition is half-maximal) stood at 2160 nM in assay [2] (Table 3); 110 nM in assay [3] (Table 3); 14 nM in assay [4] (read-out: IC50 HDAC6, Table 3); 177 nM in [5] (Table 3).
As to `CC(C)[C@@H](C(=O)N1CCC(C)(Nc2ncc(C(=O)NO)cn2)CC1)c1ccccc1` [Compound 1027], the IC50 was 422 nM in [2] (Table 3), 130 nM in [3] (Table 3), 12 nM in [4] and 103 nM in assay [5] (Table 3).
For the compound `Nc1ccc(-c2ccccc2)cc1NC(=O)/C=C/c1ccc(N2CCNCC2)c(C2CC2)c1` [Compound 2001], the IC50 came to 218 nM in assay [2] (Table 4), 27.3 nM in [3] (Table 4) and 32.3 nM in [5] (Table 4). Moreover, the “Gata2 mRNA” value in [6] was “induction of Gata2 mRNA”.
For `Nc1ccc(-c2cccs2)cc1NC(=O)/C=C/c1ccc(N2CCNCC2)c(C2CC2)c1` [Compound 2002], in that order: 136 nM, 14 nM, 21.9 nM and “induction of Gata2 mRNA”.
For `CN1CCN(c2ccc(C(=O)Nc3cc(-c4ccccc4)ccc3N)cc2C2CC2)CC1` [Compound 2003], in that order: 491 nM, 85 nM, 79.1 nM and “induction of Gata2 mRNA”.
In the case of `Nc1ccc(-c2cccs2)cc1NC(=O)c1ccc(N2CCNCC2)cc1C1CC1` [Compound 2004], the IC50 was determined as 207 nM in assay [2] (Table 4), 11.2 nM in [3] (Table 4) and 8.9 nM in assay [5] (Table 4). Besides, the “Gata2 mRNA” value in [6] is “induction of Gata2 mRNA”.
For `CC1(Nc2ncc(C(=O)Nc3cc(-c4cccs4)ccc3N)cn2)CCN(C(=O)N2CCCC2)CC1` [Compound 2005], in that order: 673 nM, 10.2 nM, 14.1 nM and “induction of Gata2 mRNA”.
Turning to `Nc1ccc(-c2cccs2)cc1NC(=O)c1cnc(NC2CCN(C(=O)N3CCOCC3)CC2)nc1` [Compound 2007], the IC50 in assay [2] (Table 4) was 284 nM; in assay [3] (Table 4), 14.9 nM; in assay [5] (Table 4), 55.5 nM. Also, the “Gata2 mRNA” value in assay [6] is “induction of Gata2 mRNA”.
For the compound `CC1(Nc2ncc(C(=O)Nc3cc(-c4cccs4)ccc3N)cn2)CCN(C(=O)N2CCNCC2)CC1` [Compound 2008], the IC50 in assay [2] (Table 4) turned out to be 195 nM; in assay [3] (Table 4), 7.27 nM; in assay [5] (Table 4) it was 25.9 nM. In addition, in [6], the “Gata2 mRNA” value is reported as “induction of Gata2 mRNA”.
For `CC1(Nc2ccc(C(=O)Nc3cc(-c4ccncc4)ccc3N)cc2)CCN(C(=O)N2CCOCC2)CC1` [Compound 2010], in that order: 511 nM, 12 nM, 16.8 nM and “induction of Gata2 mRNA”.
Turning to `Nc1ccc(-c2ccncc2)cc1NC(=O)c1ccc2c(c1)cc(C1CC1)n2CCN1CCOCC1` [Compound Y], the “Gata2 mRNA” value in [6] is reported as “induction of Gata2 mRNA”.
With `Nc1ccccc1NC(=O)c1ccc(CNC(=O)OCc2cccnc2)cc1` [Entinostat, reference compound], 3000 nM corresponded to half-maximal inhibition in assay [7] (IC50). Besides, in assay [8], the “inhibition of HDACs 4-9” value was “negligible inhibitory activity; also recorded: no inhibition”. In addition, in assay [9], the “erythroid differentiation (CD71/GlyA)” value is given as “differentiated normally”. Moreover, in [10] (1 μM, increased from 10%), the “% HbG” value stood at 46%. The “induction in % HbG” value in [10] (differentiation phase, both culture systems, FIG. 10B, 21A-C) was “dose- and time-dependent induction”.
As for `Nc1ccc(-c2ccccc2)cc1NC(=O)c1cnc2c(C3CC3)c(N3CCNCC3)ccc2c1` [N-(4-amino-[1,1′-biphenyl]-3-yl)-8-cyclopropyl-7-(piperazin-1-yl)quinoline-3-carboxamide], the IC50 is 164 nM in [2] (Table 2), 7.8 nM in [3] (Table 2) and 15 nM in [5] (Table 2).
For the compound `Nc1ccc(-c2ccccc2)cc1NC(=O)c1cnc2c(C3CC3)c(N3CCOCC3)ccc2c1` [N-(4-amino-[1,1′-biphenyl]-3-yl)-8-cyclopropyl-7-morpholinoquinoline-3-carboxamide], the IC50 was over 2000 nM in assay [2] (Table 2), 295 nM in [3] (Table 2) and 799 nM in assay [5] (Table 2).
